Measured values published in PubChem BioAssay AID248 (DTP/NCI, 2004).
Toxic doses and inconclusive results are not listed. Rule as the data show it: active = T/C of 150% or more; inactive = T/C below 125%.

Test system: L1210 leukemia ip in BDF1 mice, survival T/C
Test: NCI In Vivo Anticancer Drug Screen. Data for tumor model L1210 Leukemia (intraperitoneal) in B6D2F1 (BDF1) mice
Settings: endpoint: mean survival time, higher = longer survival
How it was run: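 Transplantable tumor model; survival measured in treated vs vehicle control mice. Value = treated/control.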

[1] = dose: 100.0 mg/kg/injection, schedule: Q01DX001 (ip), vehicle: saline
[2] = dose: 200.0 mg/kg/injection, schedule: Q01DX001 (ip), vehicle: saline
[3] = dose: 400.0 mg/kg/injection, schedule: Q01DX001 (ip), vehicle: saline
[4] = dose: 100.0 mg/kg/injection, schedule: Q04DX003 (ip), vehicle: saline
[5] = dose: 10.0 mg/kg/injection, schedule: Q01DX001 (ip), vehicle: saline
[6] = dose: 20.0 mg/kg/injection, schedule: Q01DX001 (ip), vehicle: saline
[7] = dose: 100.0 mg/kg/injection, schedule: Q04DX003 (ip), vehicle: saline with Tween-80
[8] = dose: 200.0 mg/kg/injection, schedule: Q04DX003 (ip), vehicle: saline with Tween-80
[9] = dose: 400.0 mg/kg/injection, schedule: Q04DX003 (ip), vehicle: saline with Tween-80
[10] = dose: 50.0 mg/kg/injection, schedule: Q01DX009 (ip), vehicle: Klucel (hydroxypropylcellulose) (HPC)
[11] = dose: 100.0 mg/kg/injection, schedule: Q01DX009 (ip), vehicle: Klucel (hydroxypropylcellulose) (HPC)
[12] = dose: 200.0 mg/kg/injection, schedule: Q01DX009 (ip), vehicle: Klucel (hydroxypropylcellulose) (HPC)
[13] = dose: 400.0 mg/kg/injection, schedule: Q01DX009 (ip), vehicle: Klucel (hydroxypropylcellulose) (HPC)
[14] = dose: 100.0 mg/kg/injection, schedule: Q04DX002 (ip), vehicle: saline
[15] = dose: 100.0 mg/kg/injection, schedule: Q04DX003 (ip), vehicle: Klucel (hydroxypropylcellulose) (HPC)
[16] = dose: 200.0 mg/kg/injection, schedule: Q04DX002 (ip), vehicle: saline
[17] = dose: 200.0 mg/kg/injection, schedule: Q04DX003 (ip), vehicle: Klucel (hydroxypropylcellulose) (HPC)
[18] = dose: 400.0 mg/kg/injection, schedule: Q04DX003 (ip), vehicle: Klucel (hydroxypropylcellulose) (HPC)

Measured: T/C

CCOC(=O)/C=C/c1c(C)[nH]c(=O)[nH]c1=O
inactive: [1] 94 % of control | dose: 150.0 mg/kg/injection, schedule: Q04DX003 (ip), vehicle: saline 102 % of control | [2] 93 % of control | dose: 300.0 mg/kg/injection, schedule: Q04DX003 (ip), vehicle: saline 96 % of control | [3] 93 % of control | dose: 600.0 mg/kg/injection, schedule: Q04DX003 (ip), vehicle: saline 103 % of control

O=C(O)COCC(F)(F)C(F)(F)C(F)(F)COCC(=O)O
inactive: dose: 100.0 mg/kg/injection, schedule: Q01DX009 (ip), vehicle: saline 92 % of control | [4] 97 % of control | dose: 200.0 mg/kg/injection, schedule: Q01DX009 (ip), vehicle: saline 97 % of control | dose: 200.0 mg/kg/injection, schedule: Q04DX003 (ip), vehicle: saline 98 % of control | dose: 400.0 mg/kg/injection, schedule: Q01DX009 (ip), vehicle: saline 110 % of control | dose: 400.0 mg/kg/injection, schedule: Q04DX003 (ip), vehicle: saline 93 % of control

CC1CC(C)OS(=O)O1 (stereo not given)
inactive: dose: 44.0 mg/kg/injection, schedule: Q01DX Z (ip), vehicle: saline 104 % of control | dose: 66.0 mg/kg/injection, schedule: Q01DX Z (ip), vehicle: saline 102 % of control | dose: 75.0 mg/kg/injection, schedule: Q01DX001 (ip), vehicle: acetone 103 % of control | dose: 100.0 mg/kg/injection, schedule: Q01DX Z (ip), vehicle: saline 91 % of control | dose: 150.0 mg/kg/injection, schedule: Q01DX001 (ip), vehicle: acetone 103 % of control | dose: 300.0 mg/kg/injection, schedule: Q01DX001 (ip), vehicle: acetone 101 % of control

[O]=[Sb]([OH])([c]1ccccc1)[c]1ccccc1
inactive: [5] 87 % of control | [6] 91 % of control

O=C(O)C1CCC(=O)N1C(=O)OCc1ccccc1 (stereo not given)
inactive: [7] 100 % of control | [8] 97 % of control | [9] 95 % of control

CNC(=O)CCC(NS(=O)(=O)c1ccc(C)cc1)C(=O)O (stereo not given)
inactive: dose: 100.0 mg/kg/injection, schedule: Q01DX001 (ip), vehicle: saline with Tween-80 100 % of control | dose: 200.0 mg/kg/injection, schedule: Q01DX001 (ip), vehicle: saline with Tween-80 95 % of control | dose: 400.0 mg/kg/injection, schedule: Q01DX001 (ip), vehicle: saline with Tween-80 97 % of control

CC(=O)NC1CCCCCC1I (stereo not given)
inactive: [5] 105 % of control | [6] 101 % of control | dose: 40.0 mg/kg/injection, schedule: Q01DX001 (ip), vehicle: saline 98 % of control

O=C1N(Cl)C(=O)C(c2ccc(C(F)(F)F)cc2)(c2ccc(C(F)(F)F)cc2)N1Cl
inactive: dose: 50.0 mg/kg/injection, schedule: Q01DX009 (ip), vehicle: saline with Tween-80 88 % of control | dose: 100.0 mg/kg/injection, schedule: Q01DX009 (ip), vehicle: saline with Tween-80 100 % of control | [7] 102 % of control | [8] 100 % of control

CCOC(=O)C(C#N)N=O (stereo not given)
inactive: dose: 6.25 mg/kg/injection, schedule: Q04DX003 (ip), vehicle: Klucel (hydroxypropylcellulose) (HPC) 89 % of control | dose: 12.5 mg/kg/injection, schedule: Q04DX003 (ip), vehicle: Klucel (hydroxypropylcellulose) (HPC) 91 % of control | dose: 25.0 mg/kg/injection, schedule: Q01DX009 (ip), vehicle: Klucel (hydroxypropylcellulose) (HPC) 95 % of control | dose: 25.0 mg/kg/injection, schedule: Q04DX003 (ip), vehicle: Klucel (hydroxypropylcellulose) (HPC) 92 % of control | [10] 103 % of control | dose: 50.0 mg/kg/injection, schedule: Q04DX003 (ip), vehicle: saline 100 % of control | [11] 97 % of control

Cc1cccc(OC(=O)Nc2cccc3ccccc23)c1
inactive: [11] 93 % of control | [12] 87 % of control | [13] 96 % of control

COc1cc2c(cc1OC)C(Cc1cc3c(cc1[N+](=O)[O-])OCO3)=NCC2
inactive: [1] 96 % of control | [2] 96 % of control | [3] 93 % of control

CCCCCCCCP(=O)(O)CCCCCCCC
inactive: dose: 25.0 mg/kg/injection, schedule: Q04DX003 (ip), vehicle: saline with Tween-80 96 % of control | dose: 50.0 mg/kg/injection, schedule: Q04DX003 (ip), vehicle: saline with Tween-80 87 % of control | [7] 91 % of control

O=C(O)C(Br)C(Br)C(=O)O (stereo not given)
inactive: [14] 92 % of control | [15] 97 % of control | [16] 100 % of control | [17] 103 % of control | [18] 95 % of control

C=CCNC(N)=S
inactive: [14] 100 % of control | [16] 107 % of control | dose: 400.0 mg/kg/injection, schedule: Q04DX002 (ip), vehicle: saline 95 % of control

CC1(C)OC(C(O)COC(=O)c2ccc([N+](=O)[O-])cc2)C(C(SCc2ccccc2)SCc2ccccc2)O1 (stereo not given)
inactive: dose: 100.0 mg/kg/injection, schedule: Q01DX001 (ip), vehicle: carboxymethylcellulose (CMC) 93 % of control | dose: 200.0 mg/kg/injection, schedule: Q01DX001 (ip), vehicle: carboxymethylcellulose (CMC) 89 % of control | dose: 400.0 mg/kg/injection, schedule: Q01DX001 (ip), vehicle: carboxymethylcellulose (CMC) 95 % of control

Cc1ccc(-n2c(=S)[nH]c3ccccc3c2=O)cc1F
inactive: [7] 94 % of control | [8] 93 % of control | [9] 89 % of control

O=C1CSCC(=O)O1
inactive: [10] 97 % of control | [11] 89 % of control | [12] 86 % of control

O=C(O)C1(c2ccc(-c3ccccc3)cc2)CCCCC1
inactive: [7] 96 % of control | [8] 96 % of control | [9] 100 % of control

CCOC(=O)NC1CCCCC1
inactive: dose: 100.0 mg/kg/injection, schedule: Q01DX001 (ip), vehicle: gum acacia 97 % of control | dose: 200.0 mg/kg/injection, schedule: Q01DX001 (ip), vehicle: gum acacia 97 % of control | dose: 400.0 mg/kg/injection, schedule: Q01DX001 (ip), vehicle: gum acacia 105 % of control

Cc1ccc(S(=O)(=O)NCl)cc1
inactive: [4] 99 % of control

CC(=O)OCC1OC(OC(C)=O)C(NC(=O)N(C)C(C)=O)C(OC(C)=O)C1OC(C)=O (stereo not given)
inactive: [15] 100 % of control | [17] 100 % of control | [18] 97 % of control

CCOC(=O)C1=C2c3ccc4cc(OC)ccc4c3CCC2(C)C(=O)C1 (stereo not given)
inactive: dose: 100.0 mg/kg/injection, schedule: Q04DX003 (sc), vehicle: steriod suspending solution 102 % of control | dose: 200.0 mg/kg/injection, schedule: Q04DX003 (sc), vehicle: steriod suspending solution 109 % of control | dose: 400.0 mg/kg/injection, schedule: Q04DX003 (sc), vehicle: steriod suspending solution 109 % of control

COc1ccc(NC(=O)N(c2ccccc2)C(C)C)c(OC)c1
inactive: [11] 97 % of control | [12] 94 % of control | [13] 102 % of control

O=C1OC(c2ccc(F)c3ccccc23)C2CCCCC12 (stereo not given)
inactive: dose: 100.0 mg/kg/injection, schedule: Q01DX001 (ip), vehicle: Klucel (hydroxypropylcellulose) (HPC) 102 % of control | dose: 200.0 mg/kg/injection, schedule: Q01DX001 (ip), vehicle: Klucel (hydroxypropylcellulose) (HPC) 102 % of control | dose: 400.0 mg/kg/injection, schedule: Q01DX001 (ip), vehicle: Klucel (hydroxypropylcellulose) (HPC) 96 % of control
